Assay results taken from PubChem BioAssay (NCI).
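Where inhibition never reached the appropriate level, the endpoint shown equals the highest concentration tested. Otherwise, values were interpolated linearly from a five-concentration, 48-hour dose response in 96-well plates. GI50 is the concentration that inhibits growth by half. TGI denotes the concentration required for complete inhibition of growth.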

Key:
Assay in all cases: NCI-60 cell line screen, 48 h
HCT-15 colon = system: HCT-15 colon
SF-539 CNS = system: SF-539 CNS
SNB-19 CNS = system: SNB-19 CNS
HT29 colon = system: HT29 colon
RPMI-8226 leukemia = system: RPMI-8226 leukemia
NCI-H23 lung = system: NCI-H23 lung
TK-10 renal = system: TK-10 renal
HOP-92 NSCLC = system: HOP-92 NSCLC
U251 CNS = system: U251 CNS
HCC-2998 colon = system: HCC-2998 colon
CAKI-1 renal = system: CAKI-1 renal
MDA-MB-231 breast = system: MDA-MB-231 breast
KM12 colon = system: KM12 colon
ACHN renal = system: ACHN renal
MCF7 breast = system: MCF7 breast
OVCAR-8 ovarian = system: OVCAR-8 ovarian
LOX IMVI melanoma = system: LOX IMVI melanoma
K-562 leukemia = system: K-562 leukemia
PC-3 prostate = system: PC-3 prostate
OVCAR-3 ovarian = system: OVCAR-3 ovarian
SW-620 colon = system: SW-620 colon
RXF 393 renal = system: RXF 393 renal
OVCAR-4 ovarian = system: OVCAR-4 ovarian
HS 578T breast = system: HS 578T breast
NCI-H522 lung = system: NCI-H522 lung
786-0 renal = system: 786-0 renal
SN12C renal = system: SN12C renal
MALME-3M melanoma = system: MALME-3M melanoma
BT-549 breast = system: BT-549 breast
IGROV1 ovarian = system: IGROV1 ovarian
A549 NSCLC = system: A549 NSCLC
M14 melanoma = system: M14 melanoma
EKVX NSCLC = system: EKVX NSCLC
SF-268 CNS = system: SF-268 CNS
UACC-257 melanoma = system: UACC-257 melanoma
SK-MEL-28 melanoma = system: SK-MEL-28 melanoma
MDA-MB-435 = system: MDA-MB-435
CCRF-CEM leukemia = system: CCRF-CEM leukemia
OVCAR-5 ovarian = system: OVCAR-5 ovarian
NCI/ADR-RES ovarian = system: NCI/ADR-RES ovarian
NCI-H460 lung = system: NCI-H460 lung
T-47D breast = system: T-47D breast
HCT-116 colon = system: HCT-116 colon
HOP-62 NSCLC = system: HOP-62 NSCLC
DU-145 prostate = system: DU-145 prostate
UACC-62 melanoma = system: UACC-62 melanoma
SK-OV-3 ovarian = system: SK-OV-3 ovarian
SK-MEL-2 melanoma = system: SK-MEL-2 melanoma
UO-31 renal = system: UO-31 renal
NCI-H226 lung = system: NCI-H226 lung
SK-MEL-5 melanoma = system: SK-MEL-5 melanoma
COLO 205 colon = system: COLO 205 colon
A498 renal = system: A498 renal
MOLT-4 leukemia = system: MOLT-4 leukemia
SR leukemia = system: SR leukemia
SNB-75 CNS = system: SNB-75 CNS
SF-295 CNS = system: SF-295 CNS
HL-60(TB) leukemia = system: HL-60(TB) leukemia

Compound: Cc1nc(SCC(=O)Nc2nc(-c3ccc(Cl)cc3)cs2)n(Nc2ccccc2)c1C
- GI50 (HCT-15 colon): 5.74 µM
- TGI (HCT-15 colon): 23.3 µM
- GI50 (SF-539 CNS): 1.9 µM
- TGI (SF-539 CNS): 4.27 µM
- GI50 (SNB-19 CNS): 9.41 µM
- TGI (SNB-19 CNS): 24.6 µM
- GI50 (HT29 colon): 3.78 µM
- TGI (HT29 colon): 15.4 µM
- GI50 (RPMI-8226 leukemia): 3.55 µM
- TGI (RPMI-8226 leukemia): > 100 µM
- GI50 (NCI-H23 lung): 1.85 µM
- TGI (NCI-H23 lung): 6.02 µM
- GI50 (TK-10 renal): 3.65 µM
- TGI (TK-10 renal): 13.8 µM
- GI50 (HOP-92 NSCLC): 1.61 µM
- TGI (HOP-92 NSCLC): 6.89 µM
- GI50 (U251 CNS): 3.13 µM
- TGI (U251 CNS): 13 µM
- GI50 (HCC-2998 colon): 10.6 µM
- TGI (HCC-2998 colon): 29.5 µM
- GI50 (CAKI-1 renal): 3.93 µM
- TGI (CAKI-1 renal): 22.6 µM
- GI50 (MDA-MB-231 breast): 3.01 µM
- TGI (MDA-MB-231 breast): 15.2 µM
- GI50 (KM12 colon): 2.95 µM
- TGI (KM12 colon): 14 µM
- GI50 (ACHN renal): 3.67 µM
- TGI (ACHN renal): 14.1 µM
- GI50 (MCF7 breast): 2.94 µM
- TGI (MCF7 breast): 11.4 µM
- GI50 (OVCAR-8 ovarian): 2.71 µM
- TGI (OVCAR-8 ovarian): 7.73 µM
- GI50 (LOX IMVI melanoma): 1.78 µM
- TGI (LOX IMVI melanoma): 3.72 µM
- GI50 (K-562 leukemia): 0.12 µM
- TGI (K-562 leukemia): > 100 µM
- GI50 (PC-3 prostate): 2.34 µM
- TGI (PC-3 prostate): 11 µM
- GI50 (OVCAR-3 ovarian): 3 µM
- TGI (OVCAR-3 ovarian): 12.1 µM
- GI50 (SW-620 colon): 5.5 µM
- TGI (SW-620 colon): 22.9 µM
- GI50 (RXF 393 renal): 2.98 µM
- TGI (RXF 393 renal): 7.33 µM
- GI50 (OVCAR-4 ovarian): 4.6 µM
- TGI (OVCAR-4 ovarian): 22.1 µM
- GI50 (HS 578T breast): 3.42 µM
- TGI (HS 578T breast): 21.6 µM
- GI50 (NCI-H522 lung): 2.54 µM
- TGI (NCI-H522 lung): 13.7 µM
- GI50 (786-0 renal): 3.6 µM
- TGI (786-0 renal): 13.7 µM
- GI50 (SN12C renal): 2.38 µM
- TGI (SN12C renal): 10.1 µM
- GI50 (MALME-3M melanoma): 10.8 µM
- TGI (MALME-3M melanoma): 37.6 µM
- GI50 (BT-549 breast): 7.02 µM
- TGI (BT-549 breast): 20.9 µM
- GI50 (IGROV1 ovarian): 3.36 µM
- TGI (IGROV1 ovarian): 20.6 µM
- GI50 (A549 NSCLC): 2.9 µM
- TGI (A549 NSCLC): 11.6 µM
- GI50 (M14 melanoma): 3.69 µM
- TGI (M14 melanoma): 16 µM
- GI50 (EKVX NSCLC): 1.84 µM
- TGI (EKVX NSCLC): 12.2 µM
- GI50 (SF-268 CNS): 4.8 µM
- TGI (SF-268 CNS): 20.1 µM
- GI50 (UACC-257 melanoma): 3.07 µM
- TGI (UACC-257 melanoma): 17 µM
- GI50 (SK-MEL-28 melanoma): 10.1 µM
- TGI (SK-MEL-28 melanoma): 24.6 µM
- GI50 (MDA-MB-435): 3.25 µM
- TGI (MDA-MB-435): 21.8 µM
- GI50 (CCRF-CEM leukemia): 5.49 µM
- TGI (CCRF-CEM leukemia): > 100 µM
- GI50 (OVCAR-5 ovarian): 2.65 µM
- TGI (OVCAR-5 ovarian): 13.5 µM
- GI50 (NCI/ADR-RES ovarian): 2.6 µM
- TGI (NCI/ADR-RES ovarian): 7.18 µM
- GI50 (NCI-H460 lung): 2.89 µM
- TGI (NCI-H460 lung): 11 µM
- GI50 (T-47D breast): 1.4 µM
- TGI (T-47D breast): 5.24 µM
- GI50 (HCT-116 colon): 1.84 µM
- TGI (HCT-116 colon): 4.62 µM
- GI50 (HOP-62 NSCLC): 3.06 µM
- TGI (HOP-62 NSCLC): 9.63 µM
- GI50 (DU-145 prostate): 5.64 µM
- TGI (DU-145 prostate): 18.7 µM
- GI50 (UACC-62 melanoma): 3.09 µM
- TGI (UACC-62 melanoma): 16.1 µM
- GI50 (SK-OV-3 ovarian): 5.91 µM
- TGI (SK-OV-3 ovarian): 19.8 µM
- GI50 (SK-MEL-2 melanoma): 10.1 µM
- TGI (SK-MEL-2 melanoma): 27.6 µM
- GI50 (UO-31 renal): 3.59 µM
- TGI (UO-31 renal): 37.7 µM
- GI50 (NCI-H226 lung): 3.37 µM
- TGI (NCI-H226 lung): 18.8 µM
- GI50 (SK-MEL-5 melanoma): 2.24 µM
- TGI (SK-MEL-5 melanoma): 6.31 µM
- GI50 (COLO 205 colon): 4.13 µM
- TGI (COLO 205 colon): 14.5 µM
- GI50 (A498 renal): 2.24 µM
- TGI (A498 renal): 10.5 µM
- GI50 (MOLT-4 leukemia): 2.51 µM
- TGI (MOLT-4 leukemia): 9.94 µM
- GI50 (SR leukemia): 3.81 µM
- TGI (SR leukemia): > 100 µM
- GI50 (SNB-75 CNS): 3.48 µM
- TGI (SNB-75 CNS): 16.2 µM
- GI50 (SF-295 CNS): 2.29 µM
- TGI (SF-295 CNS): 16.5 µM
- GI50 (HL-60(TB) leukemia): 2.99 µM
- TGI (HL-60(TB) leukemia): > 100 µM
